In ChEMBL document CHEMBL1201862, “PubChem BioAssay data set” (2004):
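Grown in 96-well plates, cells were treated for 48 hours with each compound at five concentrations. Insufficient inhibition: endpoint recorded as highest concentration tested. The concentration for 50% growth inhibition is given as GI50.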 Activity calls are given as the source filed them. Cut-off read from the data, not from the text of the source: active = GI50 up to about 1.1 µM and inactive = higher.

What was measured:
Assay in all cases: NCI anticancer screen, dose series, 48 h
[1] = test system: DLD-1
[2] = test system: EKVX
[3] = test system: HCT-116
[4] = test system: HOP-92
[5] = test system: M14
[6] = test system: M19-MEL
[7] = test system: MOLT-4
[8] = test system: SNB-19
[9] = test system: SR
[10] = test system: SW-620
[11] = test system: TK-10
[12] = test system: BT-549
[13] = test system: DU-145
[14] = test system: Hs-578T
[15] = test system: MCF7
[16] = test system: MDA-MB-231
[17] = test system: MDA-MB-435
[18] = test system: MDA-N
[19] = test system: PC-3
[20] = test system: T47D

SMILES | GI50 [1] | GI50 [2] | GI50 [3] | GI50 [4] | GI50 [5] | GI50 [6] | GI50 [7] | GI50 [8] | GI50 [9] | GI50 [10] | GI50 [11] | GI50 [12] | GI50 [13] | GI50 [14] | GI50 [15] | GI50 [16] | GI50 [17] | GI50 [18] | GI50 [19] | GI50 [20]
CCN(CC)CCn1nc2c3c(c(NCCN)ccc31)Sc1cc(O)ccc1-2 | 1.25 µM (inactive) | 1.4 µM (inactive) | 0.327 µM (active) | 0.94 µM (active) | 0.455 µM (active) | 0.347 µM (active) | 0.0396 µM (active) | 0.611 µM (active) | 0.201 µM (active) | 0.351 µM (active) | 2.22 µM (inactive) |  |  |  |  |  |  |  |  | 
COc1nc2c(N3CCCC3)nc(N3CCNCC3)nc2nc1NCc1ccccc1 |  | 2.77 µM (inactive) | 1.05 µM (active) | 1.79 µM (inactive) | 1.65 µM (inactive) |  | 1.9 µM (inactive) | 1.71 µM (inactive) | 1.32 µM (inactive) | 2.77 µM (inactive) | 1.76 µM (inactive) | 1.85 µM (inactive) | 1.75 µM (inactive) | 2.08 µM (inactive) | 1.76 µM (inactive) | 1.63 µM (inactive) | 1.39 µM (inactive) | 1.21 µM (inactive) | 2.28 µM (inactive) | 1.41 µM (inactive)
O=C1c2ccccc2C(=O)c2[nH]c(=O)c(/C=N/Nc3ccc([N+](=O)[O-])cc3)nc21 |  | 24.1 µM (inactive) | 19.8 µM (inactive) | 15.2 µM (inactive) | 2.01 µM (inactive) |  | 22.9 µM (inactive) | 15.9 µM (inactive) | 17.5 µM (inactive) | 12.1 µM (inactive) | 16.1 µM (inactive) | 5.08 µM (inactive) | 1.81 µM (inactive) | 3.22 µM (inactive) | 9.38 µM (inactive) | 11.3 µM (inactive) | 1.8 µM (inactive) | 1.75 µM (inactive) | 17.1 µM (inactive) | > 47.2 µM (inactive)
Cn1nc(-c2ccccc2)c(C(=O)/C=C/c2ccccc2)c(N2CCCC2)c1=O | 12.1 µM (inactive) | 20.4 µM (inactive) | 5.94 µM (inactive) | 1.64 µM (inactive) | 15.7 µM (inactive) | 16.6 µM (inactive) | 4.39 µM (inactive) |  |  | 17.9 µM (inactive) | 22.5 µM (inactive) |  |  |  |  |  |  |  |  | 
COC(=O)C1CCC(=O)C(Sc2ccccc2)C1 (configuration not stated) | > 100 µM (inactive) | > 100 µM (inactive) | > 100 µM (inactive) | 50.1 µM (inactive) | > 100 µM (inactive) | 62.1 µM (inactive) | 27.6 µM (inactive) | > 100 µM (inactive) |  | > 100 µM (inactive) | > 100 µM (inactive) |  |  |  |  |  |  |  |  | 
Cn1c(=O)c2[nH]c(/N=N/N3CCN(CCO)CC3)nc2n(C)c1=O |  | > 100 µM (inactive) | > 100 µM (inactive) | > 100 µM (inactive) | > 100 µM (inactive) |  | > 100 µM (inactive) | > 100 µM (inactive) | > 100 µM (inactive) | > 100 µM (inactive) | > 100 µM (inactive) | 18.8 µM (inactive) | > 100 µM (inactive) | > 100 µM (inactive) | > 100 µM (inactive) | > 100 µM (inactive) | > 100 µM (inactive) | > 100 µM (inactive) | > 100 µM (inactive) | > 100 µM (inactive)
c1ccc(C2N3CCCCC3[C@@H]3c4[nH]c5ccccc5c4CCN23)cc1 (some centres not stated) | 54.1 µM (inactive) | > 100 µM (inactive) | 64 µM (inactive) | > 100 µM (inactive) | > 100 µM (inactive) | 58.2 µM (inactive) | 41.2 µM (inactive) | > 100 µM (inactive) |  | 50.4 µM (inactive) | > 100 µM (inactive) |  |  |  |  |  |  |  |  | 
COc1ccc(C(=O)c2c3cc(OC)c(OC)c(OC)c3cc[n+]2C)cc1 | 17.1 µM (inactive) | 55.3 µM (inactive) | 28 µM (inactive) |  | 29.6 µM (inactive) | 24.1 µM (inactive) | 20.5 µM (inactive) | 31 µM (inactive) | 14.8 µM (inactive) | 34.4 µM (inactive) | 46.5 µM (inactive) |  |  |  |  |  |  |  |  | 
CN(c1ccc(C(=O)c2ccc(N(C)S(C)(=O)=O)cc2)cc1)S(C)(=O)=O | > 100 µM (inactive) | 86.5 µM (inactive) | > 100 µM (inactive) | > 100 µM (inactive) |  | > 100 µM (inactive) | 47 µM (inactive) | > 100 µM (inactive) | 59.8 µM (inactive) | > 100 µM (inactive) | > 100 µM (inactive) |  |  |  |  |  |  |  |  | 
FC(F)(F)c1ccc2c(c1)nc1n2C(c2c(Cl)cccc2Cl)SC1 (configuration not stated) |  | 14.2 µM (inactive) | 15.1 µM (inactive) | 13.6 µM (inactive) | 16.1 µM (inactive) |  | 38.7 µM (inactive) | 19.1 µM (inactive) | 20.7 µM (inactive) | 24.3 µM (inactive) | 22 µM (inactive) | 23 µM (inactive) | 21.4 µM (inactive) | 19.7 µM (inactive) | 15.7 µM (inactive) | 17 µM (inactive) | 16.8 µM (inactive) | 16.6 µM (inactive) | 15 µM (inactive) | 15.8 µM (inactive)
